The record followed here is patent US10834951B2, “Organic compounds” (GIVAUDAN SA, priority 2013, dated 2020).

Assay [1] is described as follows: Tasting in chicken bouillon base (0.7% salt, 0.5% fat). As for the experimental part:
A compound of formula (I) in a concentration as indicated below was added to a chicken bouillon base (0.7% salt, 0.5% fat). The resultant composition was compared with a chicken bouillon without a compound of formula (I).

Assay [2] in a line: Tasting in fried potato snack product with cheese seasoning (35% fat). As for the experimental part: A snack product consisting of a fried potato base, containing 35% fat and flavored with cheese seasoning containing salt, MSG, dairy, organic acids, sugars, and a flavour formulation. A compound of formula (I) was added to the snack product at the indicated levels and the tasting results are reported as follows (compared with a snack product without a compound of formula (I)): […]

Assay [3] can be described thus: Tasting in brewed green tea against reference. How it is done:
A green tea was brewed by taking 0.6 g of tea/100 ml of water. The water was heated to 80° C. and the tea leaves were left in the solution for 5 minutes. The tea solution was allowed to cool down to room temperature. Part of the solution was kept as a reference. To another part was added a compound of formula (I) in a concentration as indicated below. The solutions were tasted against the reference (i.e. a green tea without a compound of formula (I)).

Assay [4] is described as follows: Expert tasting in orange flavoured Tang powdered soft drink. How it is done:
In an orange flavoured Tang powdered soft drink (market product) sweetened with sucrose plus high intensity sweetener and containing citric acid, C18:0 pyro-Glu, and C18:2-Theanine were tested.
All samples were evaluated by expert tasters. Tasters were asked to describe the samples focusing on authentic taste, mouthfeel & body, enhancement, richness, juiciness, long lastingness, salivation, sweetness, masking off notes of high intensity sweetener.

Assay [5] can be described thus: Tasting by a professional panel in diluted low salt soy sauce. How it is done: Kikkoman low salt soy sauce was diluted 100 times. Part of the solution was kept as the reference. To another part was dosed a compound of formula (I). The solutions were tasted by a professional panel.
5.a: 0.1 ppm of 5-oxo-1-stearoylpyrrolidine-2-carboxylic acid (C18:0 pyro-Glu) was added to tap water containing 1% salt reduced kikoman soy sauce (9% salt).
5.b: 0.5 ppm of 5-oxo-1-palmitoylpyrrolidine-2-carboxylic acid (C16:0 pyro-Glu) was added to salt reduced kikoman soy sauce (9% salt).

The nature of assay [6]: Expert tasting in mango flavoured still beverage. How it is done:
In a Mango flavoured still beverage, sweetened with 8% sucrose & containing 0.1% citric acid and 1% clear mango juice flavoured with proprietary Mango flavour @ 0.05%, C16:0 pyro-Glu and C18:2-Theanine were added, as such (separate) and in combination.
All samples were evaluated by expert tasters. Tasters were asked to describe the samples focusing on authentic taste, juicy mouthfeel, enhancement, richness, juiciness, long lastingness, salivation, sweetness.
*Base: water, 8% sucrose, 0.1% citric acid, 1% clear mango juice (i.e. very low juice concentration), flavoured with Mango flavor (dosed at 0.05%).

The mark [7] stands for this setting: 0.5 ppm in chicken bouillon base.

For `CCCCCCCCCCCCCCCCCC(=O)N1C(=O)CCC1C(=O)O` (stereo not shown) [C18:0 pyro-Glu, 5-oxo-1-stearoylpyrrolidine-2-carboxylic acid], in assay [1] (0.2 ppm in chicken bouillon base), the “taste description versus chicken bouillon without compound” value is recorded as “More umami lingering body, more salty, more rich”. Also, in assay [2] (1 ppm in cheese flavoured fried potato snack), the “taste description versus snack product without compound” value is listed as “more full, more cheesy, longer lasting, more salty”. The “taste description versus green tea reference” value in assay [3] (0.2 ppm in green tea) is “more complex and had more mouthfeel”. For the same compound, the “taste description by expert tasters” value in assay [4] (0.1 ppm in orange flavoured Tang base) is reported as “enhanced fruitiness, enhanced mouthfeel. Additionally, the off-notes of the high intensity sweetener were suppressed”. The “taste description versus reference without the compound” value in assay [5] (0.1 ppm in tap water containing 1% salt reduced kikoman soy sauce (9% salt)) is “more body and to be more umami, more salty, longer lasting and richer”.
Take `CCCCCCCCCCCCCCCC(=O)N1C(=O)CCC1C(=O)O` (stereo not shown) [C16:0 pyro-Glu, 5-oxo-1-palmitoylpyrrolidine-2-carboxylic acid]: the “taste description versus chicken bouillon without compound” value in assay [1] (setting [7]) is reported as “Nice strong salty, umami lingering body, better meat profile”. Also, the “taste description versus snack product without compound” value in assay [2] (0.5 ppm in cheese flavoured fried potato snack) is “more rich, more cheesy, more umami. More salty”. Besides, in assay [5] (0.5 ppm in salt reduced kikoman soy sauce (9% salt)), the “taste description versus reference” value is “a stronger saltiness and to be more lingering, more umami”. In addition, the “taste description by expert tasters” value in assay [6] (0.1 ppm in mango still beverage base) is “very juicy and long lasting sweet, salivating”.
Consider `CCCCC/C=C\C/C=C\CCCCCCCC(=O)NC(CCC(=O)NCC)C(=O)O` (stereo not shown) [C18:2-Theanine, 5-(ethylamino)-2-[(9Z,12Z)-octadeca-9,12-dienoylamino]-5-oxopentanoic acid], for which the “taste description versus chicken bouillon without compound” value in assay [1] (setting [7]) is “More body and fatty notes, salivating”. Besides, in assay [2] (0.1 ppm in cheese flavoured fried potato snack), the “taste description versus snack product without compound” value is listed as “more fatty, more umami, more succulent”. Further, the “taste description versus green tea reference” value is “better green tea character, was less bitter and had a better mouthfeel” in assay [3] (0.02 ppm in green tea); “more authentic tea than the reference and to have a nice balance between bitterness and astringency” in assay [3] (1 ppb in green tea); “more astringent, more body and somewhat more bitter umami than the reference” in assay [3] (10 ppb in green tea). Moreover, the “taste description by expert tasters” value in assay [4] (1 ppm in orange flavoured Tang base) is given as “enhances sweet juicy orange notes,more body, more mouthfeel. Additionally, the off-notes of the high intensity sweetener were suppressed”; in assay [6] (1 ppm in mango still beverage base), “fatty skin-like, very juicy, authentic mango, more mouthfeel, long lasting mango taste”.
